TGI data for eleven compounds are collected here from PubChem BioAssay (NCI).

Test systems include KM12 colon; NCI-H226 lung; HL-60(TB) leukemia; ACHN renal; IGROV1 ovarian; OVCAR-8 ovarian; HOP-92 NSCLC; UACC-257 melanoma; NCI-H460 lung; RXF 393 renal.
Holding throughout (assay): growth of human tumour cells (NCI), 48 h

Structures are written as SMILES.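 Cells were grown in 96-well plates and exposed to each compound for 48 hours at five concentrations; endpoints were interpolated linearly between bracketing concentrations, or set to the highest concentration if not reached. TGI: total growth inhibition.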

Turning to `COC(=O)C1=C(C(=O)OC)SC2(S1)C(C(=O)OC)=C(C(=O)OC)Sc1c2ssc1=O`, the TGI with KM12 colon is 15.4 µM; in the assay on NCI-H226 lung it was 2.97 µM; in the assay on HL-60(TB) leukemia, 0.0492 µM; with ACHN renal, 2.22 µM; in the assay on IGROV1 ovarian it was 3.63 µM; in the assay on OVCAR-8 ovarian it was 2.69 µM. For the same compound, the TGI with HOP-92 NSCLC came to 2.3 µM; with UACC-257 melanoma it was 3.59 µM; in the assay with NCI-H460 lung it was 8.76 µM; with RXF 393 renal it was 2.7 µM.

With `CN1CN(c2ccccc2)C2(CCN(C(=O)OC(C)(C)C)CC2)C1=O`, the TGI in the assay on KM12 colon, in the assay with NCI-H226 lung, with HL-60(TB) leukemia, with ACHN renal, in the assay with IGROV1 ovarian and with OVCAR-8 ovarian was above 100 µM in each case. The TGI with HOP-92 NSCLC, with UACC-257 melanoma, in the assay on NCI-H460 lung and in the assay on RXF 393 renal was above 100 µM throughout.

With `CC(C)(C)c1ccc(OCCOc2ccc(C(C)(C)C)cc2NC=O)c(NC=O)c1`, the TGI in the assay with KM12 colon was 16.2 µM; with NCI-H226 lung, 28.1 µM; in the assay on HL-60(TB) leukemia, above 100 µM; in the assay on ACHN renal it was above 73.2 µM; in the assay with IGROV1 ovarian it was above 100 µM; in the assay with OVCAR-8 ovarian, 59.4 µM. Also, the TGI turned out to be 23.5 µM in the assay with HOP-92 NSCLC, 27.4 µM in the assay with UACC-257 melanoma, 34.3 µM in the assay on NCI-H460 lung and 28.2 µM with RXF 393 renal.

Take `COc1ccc(/C=C2\CCC(C)(CN(C)C)C2=O)cc1Br` (stereo not given): the TGI in the assay on KM12 colon was 28.3 µM; with NCI-H226 lung, 56.1 µM; in the assay on HL-60(TB) leukemia, 85.2 µM; with ACHN renal, above 62.6 µM; in the assay on IGROV1 ovarian it was 40.2 µM; in the assay with OVCAR-8 ovarian, 32.9 µM. For the same compound, the TGI was above 85.8 µM in the assay on HOP-92 NSCLC, 36.6 µM in the assay on UACC-257 melanoma, above 57.2 µM with NCI-H460 lung and 35.7 µM in the assay on RXF 393 renal.

As to `CC(=O)OC1CC[C@@]2(C)C(=CC[C@@H]3[C@@H]2CC[C@]2(C)Nc4c(cnn4-c4ccc(F)cc4)C[C@@H]32)C1` (stereo not given in full), the TGI is above 84.1 µM in the assay on KM12 colon; above 100 µM in the assay with NCI-H226 lung; above 26 µM in the assay on HL-60(TB) leukemia; above 100 µM in the assay with ACHN renal; above 100 µM with IGROV1 ovarian; above 100 µM in the assay on OVCAR-8 ovarian. Further, the TGI in the assay on HOP-92 NSCLC was above 100 µM; with UACC-257 melanoma, above 100 µM; with NCI-H460 lung, above 100 µM; in the assay on RXF 393 renal, 11 µM.

Regarding `C=C1C(O)C2OC(=O)C(=C)C2C(OC(=O)/C(C)=C/C)CC2(C)OC2C2OC12` (stereo not given), the TGI with KM12 colon is 11.6 µM; in the assay on NCI-H226 lung it was above 100 µM; in the assay with HL-60(TB) leukemia, 7.44 µM; with ACHN renal, 15.5 µM; with IGROV1 ovarian, above 100 µM; in the assay on OVCAR-8 ovarian it was above 100 µM. For the same compound, the TGI was 65.4 µM with HOP-92 NSCLC, above 100 µM with UACC-257 melanoma, 91.6 µM with NCI-H460 lung and 35.6 µM with RXF 393 renal.

Take `COc1ccc2nc3c(nc2c1)C(C)(C)C=C3c1ccc(Br)cc1`: the TGI in the assay with KM12 colon, with NCI-H226 lung, in the assay with HL-60(TB) leukemia, in the assay with ACHN renal, in the assay with IGROV1 ovarian and in the assay on OVCAR-8 ovarian was above 100 µM in each case. The TGI in the assay on HOP-92 NSCLC, in the assay with UACC-257 melanoma, in the assay on NCI-H460 lung and in the assay with RXF 393 renal was above 100 µM each time.

In the case of `COc1ccc2cc(CNCCOCCOCCNCc3ccc4cc(OC)ccc4c3)ccc2c1`, the TGI in the assay with KM12 colon turned out to be 2.27 µM; with NCI-H226 lung it was 3.09 µM; in the assay on HL-60(TB) leukemia it was 0.657 µM; with ACHN renal, 3.01 µM; in the assay with IGROV1 ovarian, 3.45 µM; with OVCAR-8 ovarian it was 2.97 µM. For the same compound, the TGI worked out at 3.05 µM with HOP-92 NSCLC, 3.18 µM with UACC-257 melanoma, 1.51 µM in the assay with NCI-H460 lung and 3.18 µM in the assay with RXF 393 renal.

Consider `C1=Nc2ccc(cc2)-c2ccc(cc2)N=Cc2ccccc2OCc2cccc(n2)COc2ccccc21`, for which the TGI with KM12 colon was above 100 µM; in the assay on NCI-H226 lung, above 100 µM; in the assay with HL-60(TB) leukemia it was above 100 µM; in the assay with ACHN renal it was above 72.9 µM; in the assay on IGROV1 ovarian, above 100 µM; in the assay on OVCAR-8 ovarian it was above 100 µM. Also, the TGI was above 60 µM in the assay with HOP-92 NSCLC, above 100 µM in the assay with UACC-257 melanoma, above 100 µM with NCI-H460 lung and above 84 µM in the assay on RXF 393 renal.

On to `COc1c(C(=O)CC2c3c(cc4oc(C)cc(=O)c4c3OC)OC(=N)C2c2nc3ccccc3[nH]2)c(O)c(OC)c2occc12` (stereo not given), for which the TGI with KM12 colon, with NCI-H226 lung, with HL-60(TB) leukemia, in the assay on ACHN renal, with IGROV1 ovarian and with OVCAR-8 ovarian was above 100 µM each time. Also, the TGI with HOP-92 NSCLC, in the assay with UACC-257 melanoma, with NCI-H460 lung and in the assay with RXF 393 renal was above 100 µM each time.

Regarding `O=S1(=O)OCCOS(=O)(=O)C1C1c2ccccc2-c2ccccc21`, the TGI was above 100 µM in the assay with KM12 colon; above 100 µM with NCI-H226 lung; 58.9 µM in the assay with HL-60(TB) leukemia; above 100 µM in the assay on ACHN renal; above 100 µM in the assay on IGROV1 ovarian; above 100 µM in the assay with OVCAR-8 ovarian. Further, the TGI in the assay with HOP-92 NSCLC is above 100 µM; with UACC-257 melanoma, above 100 µM; in the assay with NCI-H460 lung, 33.7 µM; with RXF 393 renal, above 100 µM.
